# Key:
# Crizotinib + Navitoclax = compound: C[C@@H](Oc1cc(-c2cnn(C3CCNCC3)c2)cnc1N)c1c(Cl)ccc(F)c1Cl [Crizotinib] + CC1(C)CCC(c2ccc(Cl)cc2)=C(CN2CCN(c3ccc(C(=O)NS(=O)(=O)c4ccc(N[C@H](CCN5CCOCC5)CSc5ccccc5)c(S(=O)(=O)C(F)(F)F)c4)cc3)CC2)C1 [Navitoclax] (partner 0.5 µM); test: relative viability (nuclei count vs DMSO), 5 days (fraction); higher = more cells survive
# In short: (§1)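 A single step with final 0.05% Triton X-100, 1% formaldehyde and 1 ug/ml Hoechst fixed the cells and stained nuclei 5 days after treatment. Lung cancer cell lines in 1536-well plates had been treated by pin tool the day after seeding with one drug alone or a fixed anchor-drug dose plus five library-drug doses (not always all listed) in √10 steps, and nuclei were counted on 4× images. Relative viability is the ratio of nuclei in treated wells to nuclei in vehicle wells, taken as the median of duplicate plates.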
# Carfilzomib + Tozasertib = compound: CC(C)C[C@H](NC(=O)[C@H](CCc1ccccc1)NC(=O)CN1CCOCC1)C(=O)N[C@@H](Cc1ccccc1)C(=O)N[C@@H](CC(C)C)C(=O)[C@@]1(C)CO1 [Carfilzomib] + Cc1cc(Nc2cc(N3CCN(C)CC3)nc(Sc3ccc(NC(=O)C4CC4)cc3)n2)n[nH]1 [Tozasertib] (partner 0.1 µM); test: as above
# In short: as §1
Cell Line,relative viability (Crizotinib + Navitoclax; first compound 0.01 µM),relative viability (Crizotinib + Navitoclax; first compound 0.03162 µM),relative viability (Crizotinib + Navitoclax; first compound 0.1 µM),relative viability (Crizotinib + Navitoclax; first compound 0.3162 µM),relative viability (Crizotinib + Navitoclax; first compound 1 µM),relative viability (Carfilzomib + Tozasertib; first compound 0.001 µM),relative viability (Carfilzomib + Tozasertib; first compound 0.003162 µM),relative viability (Carfilzomib + Tozasertib; first compound 0.01 µM),relative viability (Carfilzomib + Tozasertib; first compound 0.03162 µM),relative viability (Carfilzomib + Tozasertib; first compound 0.1 µM)
HCC-78,0.774,0.738,0.749,0.685,0.628,0.356,0.61,0.401,0.358,0.287
HCC-366,0.991,1.11,1.06,,1.17,0.0847,0.132,0.185,0.106,0.0351
HCC-827,0.954,,0.987,1.01,0.953,0.366,0.397,0.47,0.411,0.265
HOP-62,0.994,0.996,0.943,,0.948,0.37,0.405,0.385,0.19,0.0741
IA-LM,0.71,0.759,0.792,0.796,0.842,,,,,
LC-2-ad,0.412,0.432,0.44,,0.442,0.466,0.453,0.498,0.279,0.24
LCLC-97TM1,0.318,0.39,0.341,0.317,0.404,0.25,0.263,0.215,0.205,0.107
LCLC-103H,,,,,,0.467,0.511,0.408,0.518,0.169
LK-2,0.826,0.938,0.674,0.967,0.905,0.181,0.172,0.159,0.179,0.196
LOU-NH91,0.68,0.708,0.701,0.647,0.727,0.742,0.801,0.635,0.289,0.246
LU99A,0.801,0.743,0.826,0.721,0.786,0.282,0.286,0.326,0.306,0.123
LXF-289,0.856,0.931,,0.879,0.939,0.186,0.186,0.104,0.0498,0.0494
NCI-H23,0.85,0.738,0.688,,0.816,0.382,0.428,0.376,0.122,0.13
NCI-H322M,1.07,1.12,1.19,1.13,1.3,0.473,0.52,0.556,0.433,0.337
NCI-H358,,,,,,0.0998,0.0949,0.127,0.057,0.0759
NCI-H441,0.959,0.571,0.682,,0.798,0.6,0.626,0.49,0.193,0.247
NCI-H460,,1.03,1.1,1.2,1.13,0.363,0.51,0.48,0.512,0.0337
NCI-H520,1.01,1.05,1.31,,1.12,0.515,0.492,0.371,0.227,0.259

# Source: the supplement of paper PMC10307832
